Laboratory results as given in US20240116910A1, “Heterocycles as WIP1 Inhibitors” (PMV Pharmaceuticals, Inc., priority 2022, published 2024).

Assays:
[1] = molecular target: recombinant His-tag Wip1(2-420) protein (amino acids #2-420) (Homo sapiens (Human), UniProt O15297); assay: Wip1(2-420) phosphatase enzyme FDP assay; assay type: biochemical; conditions: fluorescein diphosphate (FDP) substrate, RT 2 hours, fluorescence Ex485/Em535; read-out: WIP1 (Truncated 2-420) FDP Assay: IC50
[2] = molecular target: recombinant His-tag Wip1 full length protein (amino acids #1-605) (Homo sapiens (Human), UniProt O15297); assay: Wip1 full length phosphatase enzyme FDP assay; assay type: biochemical; conditions: fluorescein diphosphate (FDP) substrate, RT 2 hours, fluorescence Ex485/Em535
recombinant His-tag Wip1 full length protein (amino acids #1-605), sequence (O15297 whole entry): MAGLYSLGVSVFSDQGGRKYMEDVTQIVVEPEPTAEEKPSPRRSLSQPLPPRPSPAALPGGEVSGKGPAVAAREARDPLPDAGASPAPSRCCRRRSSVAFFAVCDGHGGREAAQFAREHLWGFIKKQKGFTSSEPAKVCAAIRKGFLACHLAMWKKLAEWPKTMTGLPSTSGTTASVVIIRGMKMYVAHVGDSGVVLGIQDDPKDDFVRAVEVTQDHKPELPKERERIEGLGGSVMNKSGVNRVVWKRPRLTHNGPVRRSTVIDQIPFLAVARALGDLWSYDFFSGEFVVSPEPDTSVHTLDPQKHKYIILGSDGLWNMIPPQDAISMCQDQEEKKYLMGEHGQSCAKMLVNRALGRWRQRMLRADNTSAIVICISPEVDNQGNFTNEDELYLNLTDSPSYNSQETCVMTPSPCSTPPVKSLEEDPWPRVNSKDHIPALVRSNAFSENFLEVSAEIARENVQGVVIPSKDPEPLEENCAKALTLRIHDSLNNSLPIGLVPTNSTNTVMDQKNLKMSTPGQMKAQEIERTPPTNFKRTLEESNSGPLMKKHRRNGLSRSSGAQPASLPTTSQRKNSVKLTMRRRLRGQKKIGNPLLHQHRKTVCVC

recombinant His-tag Wip1(2-420) protein (amino acids #2-420), sequence (O15297 2-420): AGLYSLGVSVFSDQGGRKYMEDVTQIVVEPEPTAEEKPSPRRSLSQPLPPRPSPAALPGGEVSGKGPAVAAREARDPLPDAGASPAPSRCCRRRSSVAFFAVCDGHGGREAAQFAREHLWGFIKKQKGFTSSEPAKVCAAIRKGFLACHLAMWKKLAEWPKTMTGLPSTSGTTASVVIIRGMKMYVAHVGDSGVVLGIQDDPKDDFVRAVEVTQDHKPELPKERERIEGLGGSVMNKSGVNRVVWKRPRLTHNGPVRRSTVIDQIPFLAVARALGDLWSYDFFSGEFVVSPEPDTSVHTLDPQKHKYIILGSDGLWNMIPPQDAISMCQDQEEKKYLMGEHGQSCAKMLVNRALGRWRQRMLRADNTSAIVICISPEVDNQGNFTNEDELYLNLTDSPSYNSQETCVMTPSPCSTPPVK

IC50 [1] [µM] | IC50 [2] [µM] | SMILES
0.041 | 0.053 | Cc1ncc(Cl)cc1N[C@@H](C)c1ncc(C(=O)N[C@@H](CC2CCCC2)C(=O)NC2CC2)s1 [Compound 279, (2S)-2-({2-[(1S)-1-[(5-chloro-2-methylpyridin-3-yl)amino]ethyl]-1,3-thiazol-5-yl}formamido)-3-cyclopentyl-N-cyclopropylpropanamide]
0.006 | 0.015 | Cc1ncc(Cl)cc1NCc1ncc(C(=O)N[C@@H](CC2CCCCC2)C(=O)Nc2ccncc2)s1 [Compound 300, 2-[[(5-chloro-2-methyl-3-pyridyl)amino]methyl]-N-[(1S)-1-(cyclohexylmethyl)-2-oxo-2-(4-pyridylamino)ethyl]thiazole-5-carboxamide]
0.13 | 0.062 | Cc1cc(NC(=O)[C@H](CC2CCCC2)NC(=O)c2cnc(C(C)Nc3cccc(Cl)c3)s2)cc(C)n1 (stereo partly drawn) [Compound 122, (2S)-2-[(2-{1-[(3-chlorophenyl)amino]ethyl}-1,3-thiazol-5-yl)formamido]-3-cyclopentyl-N-(2,6-dimethylpyridin-4-yl)propanamide]
0.149 | 0.181 | COc1ncc(Cl)cc1N[C@@H](C)c1ccc(C(=O)N[C@@H](CC2CCCC2)C(=O)N[C@@H]2CC2(F)F)s1 [Compound 40, (2S)-2-({5-[(1S)-1-[(5-chloro-2-methoxypyridin-3-yl)amino]ethyl]thiophen-2-yl}formamido)-3-cyclopentyl-N-[(1R)-2,2-difluorocyclopropyl]propanamide]
0.007 | 0.009 | Cc1ncc(Cl)cc1N[C@@H](C)c1ccc(C(=O)N[C@@H](CC2CCCC2)C(=O)NC2CCC(F)(F)C2)s1 (stereo partly drawn) [Compound 26, (2S)-2-({5-[(1S)-1-[(5-chloro-2-methylpyridin-3-yl)amino]ethyl]thiophen-2-yl}formamido)-3-cyclopentyl-N-(3,3-difluorocyclopentyl)propanamide]
0.007 | 0.011 | Cc1cc(NC(=O)[C@H](CC2CCCC2)NC(=O)c2cnc([C@@H](C)Nc3cccc(Cl)c3)s2)ccn1 [Compound 120, (2S)-2-({2-[(1R)-1-[(3-chlorophenyl)amino]ethyl]-1,3-thiazol-5-yl}formamido)-3-cyclopentyl-N-(2-methylpyridin-4-yl)propanamide]
0.008 | 0.011 | Cc1ncc(Cl)cc1N[C@@H](C)c1ccc(C(=O)N[C@@H](CC2CCCC2)C(=O)NC2CC(C#N)C2)s1 (stereo partly drawn) [Compound 33, (2S)-2-({5-[(1S)-1-[(5-chloro-2-methylpyridin-3-yl)amino]ethyl]thiophen-2-yl}formamido)-N-(3-cyanocyclobutyl)-3-cyclopentylpropanamide]
0.008 | 0.011 | Cc1ncc(Cl)cc1NC(C)(C)c1ccc(C(=O)N[C@@H](CC2CCCC2)C(=O)NC23CC(C2)C3)s1 [Compound 54, (2S)-N-{bicyclo[1.1.1]pentan-1-yl}-2-[(5-{2-[(5-chloro-2-methylpyridin-3-yl)amino]propan-2-yl}thiophen-2-yl)formamido]-3-cyclopentylpropanamide]
0.103 | 0.136 | Cc1ncc(Cl)cc1N[C@@H](C)c1ccc(C(=O)N[C@@H](CC23CC(C2)C3)C(=O)NC2CC2)s1 [Compound 72, (2S)-3-{bicyclo[1.1.1]pentan-1-yl}-2-({5-[(1S)-1-[(5-chloro-2-methylpyridin-3-yl)amino]ethyl]thiophen-2-yl}formamido)-N-cyclopropylpropanamide]
0.005 | 0.008 | Cc1ccc(NC(=O)[C@H](CC2CCCC2)NC(=O)c2ccc([C@H](C)Nc3cc(Cl)cnc3C)s2)cn1 [Compound 53, (2S)-2-({5-[(1S)-1-[(5-chloro-2-methylpyridin-3-yl)amino]ethyl]thiophen-2-yl}formamido)-3-cyclopentyl-N-(6-methylpyridin-3-yl)propanamide]
0.079 | 0.015 | CC(Nc1cccc(Cl)c1)c1ccc(C(=O)N[C@@H](CC2CCCC2)C(=O)NC2CC2)s1 (stereo partly drawn) [Compound 4, 5-[1-(3-chloroanilino)ethyl]-N-[(1S)-1-(cyclopentylmethyl)-2-(cyclopropylamino)-2-oxo-ethyl]thiophene-2-carboxamide]
0.135 | 0.196 | Cc1cc(NC(=O)[C@H](CC2CCCC2)NC(=O)c2cnc([C@@H](C)Nc3cccc(Cl)c3)s2)cc(C)n1 [Compound 118, (2S)-2-({2-[(1R)-1-[(3-chlorophenyl)amino]ethyl]-1,3-thiazol-5-yl}formamido)-3-cyclopentyl-N-(2,6-dimethylpyridin-4-yl)propanamide]
0.005 | 0.007 | Cc1ncc(Cl)cc1N[C@@H](C)c1ccc(C(=O)N[C@@H](CC2CCCC2)C(=O)Nc2cccc(S(C)(=O)=O)c2)s1 [Compound 41, (2S)-2-({5-[(1S)-1-[(5-chloro-2-methylpyridin-3-yl)amino]ethyl]thiophen-2-yl}formamido)-3-cyclopentyl-N-(3-methanesulfonylphenyl)propanamide]
0.223 | 0.308 | CCc1ncc(Cl)cc1N[C@H](C)c1ccc(C(=O)N[C@@H](CC2CCCC2)C(=O)NC2CC2)s1 [Compound 79, (2S)-2-({5-[(1R)-1-[(5-chloro-2-ethylpyridin-3-yl)amino]ethyl]thiophen-2-yl}formamido)-3-cyclopentyl-N-cyclopropylpropanamide]
0.008 | 0.01 | Cc1ncc(Cl)cc1N[C@@H](C)c1ccc(C(=O)N[C@@H](CC2CCCC2)C(=O)NC(C)(C)C#N)s1 [Compound 65, (2S)-2-({5-[(1S)-1-[(5-chloro-2-methylpyridin-3-yl)amino]ethyl]thiophen-2-yl}formamido)-N-(1-cyano-1-methylethyl)-3-cyclopentylpropanamide]
0.074 | 0.113 | CC[C@@H](Nc1cc(Cl)cnc1C)c1ccc(C(=O)N[C@@H](CC2CCCC2)C(=O)N[C@H]2CC2(F)F)s1 [Compound 51, (2S)-2-({5-[(1R)-1-[(5-chloro-2-methylpyridin-3-yl)amino]propyl]thiophen-2-yl}formamido)-3-cyclopentyl-N-[(1S)-2,2-difluorocyclopropyl]propanamide]
0.066 | 0.019 | Cc1cc(NC(=O)[C@H](CC2CCCC2)NC(=O)c2cnc(C(C)Nc3cccc(Cl)c3)s2)ccn1 (stereo partly drawn) [Compound 121, (2S)-2-[(2-{1-[(3-chlorophenyl)amino]ethyl}-1,3-thiazol-5-yl)formamido]-3-cyclopentyl-N-(2-methylpyridin-4-yl)propanamide]
0.012 | 0.014 | CNC(=O)C12CC(NC(=O)[C@H](CC3CCCC3)NC(=O)c3ccc([C@H](C)Nc4cc(Cl)cnc4C)s3)(C1)C2 [Compound 44, 3-[(2S)-2-({5-[(1S)-1-[(5-chloro-2-methylpyridin-3-yl)amino]ethyl]thiophen-2-yl}formamido)-3-cyclopentylpropanamido]-N-methylbicyclo[1.1.1]pentane-1-carboxamide]
0.006 | 0.008 | CCn1cc(NC(=O)[C@H](CC2CCCC2)NC(=O)c2ccc([C@H](C)Nc3cc(Cl)cnc3C)s2)cn1 [Compound 162, (2S)-2-({5-[(1S)-1-[(5-chloro-2-methylpyridin-3-yl)amino]ethyl]thiophen-2-yl}formamido)-3-cyclopentyl-N-(1-ethyl-1H-pyrazol-4-yl)propanamide]
0.104 | 0.164 | COc1ncc(Cl)cc1N[C@@H](C)c1ccc(C(=O)N[C@@H](CC2CCCC2)C(=O)N[C@H]2CC2(F)F)s1 [Compound 49, (2S)-2-({5-[(1S)-1-[(5-chloro-2-methoxypyridin-3-yl)amino]ethyl]thiophen-2-yl}formamido)-3-cyclopentyl-N-[(1S)-2,2-difluorocyclopropyl]propanamide]
0.013 | 0.016 | Cc1ncc(Cl)cc1N[C@@H](C)c1ccc(C(=O)N[C@@H](CC2CCCC2)C(=O)NC23CC(C(=O)O)(C2)C3)s1 [Compound 43, 3-[(2S)-2-({5-[(1S)-1-[(5-chloro-2-methylpyridin-3-yl)amino]ethyl]thiophen-2-yl}formamido)-3-cyclopentylpropanamido]bicyclo[1.1.1]pentane-1-carboxylic acid]
0.06 | 0.028 | CC(Nc1ccc(F)c(Cl)c1)c1ccc(C(=O)N[C@@H](CC2CCCC2)C(=O)NC2CC2)s1 (stereo partly drawn) [Compound 3, 5-[1-(3-chloro-4-fluoro-anilino)ethyl]-N-[(1S)-1-(cyclopentylmethyl)-2-(cyclopropylamino)-2-oxo-ethyl]thiophene-2-carboxamide]
0.055 | 0.015 | O=C(N[C@@H](CC1CCCCC1)C(=O)Nc1ccccn1)c1cnc(CNc2cncc(Cl)c2)s1 [Compound 302, 2-[[(5-chloro-3-pyridyl)amino]methyl]-N-[(1S)-1-(cyclohexylmethyl)-2-oxo-2-(2-pyridylamino)ethyl]thiazole-5-carboxamide]
0.01 | 0.011 | Cc1ncc(Cl)cc1NC(C)c1ccc(C(=O)N[C@@H](CC2CCCC2)C(=O)NC2CC2(F)F)s1 (stereo partly drawn) [Compound 13, (2S)-2-[(5-{1-[(5-chloro-2-methylpyridin-3-yl)amino]ethyl}thiophen-2-yl)formamido]-3-cyclopentyl-N-(2,2-difluorocyclopropyl)propanamide]
0.029 | 0.036 | Cc1ncc(Cl)cc1NC(C)(C)c1ccc(C(=O)N[C@@H](CC2CCCC2)C(=O)NC2CC2)s1 [Compound 55, (2S)-2-[(5-{2-[(5-chloro-2-methylpyridin-3-yl)amino]propan-2-yl}thiophen-2-yl)formamido]-3-cyclopentyl-N-cyclopropylpropanamide]
0.059 | 0.016 | C[C@@H](Nc1cccc(Cl)c1)c1ncc(C(=O)N[C@@H](CC2CCCC2)C(=O)NC2CC2)s1 [Compound 125, (2S)-2-({2-[(1R)-1-[(3-chlorophenyl)amino]ethyl]-1,3-thiazol-5-yl}formamido)-3-cyclopentyl-N-cyclopropylpropanamide]
